Experimental data from patent US20060084790A1, “P-Rex1, a ptdins (3,4,5) p3-g-beta-gamma-regulated guanine-nucleotide exchange factor for rac” (The Babraham Institute, priority 2002, published 2006).
One block for each compound: values may come before it.

Assays:
[1] = test system: P-Rex1; assay: Surface plasmon resonance (Biacore) binding of P-Rex1 to phospholipid vesicles; set-up: species or system human; settings: 6 mol-% phosphoinositide; 100 nM P-Rex1; FIG. 5C
Procedure: Assays were conducted as described (Ellson et al. 2001), using mixed phospholipid vesicles (PtdCho, PtdS, phosphatidylethanolamine (PtdE), 330 μM each final concentration) with or without added phosphoinositides (6 mol-% final concentration) to load the L1 vesicle capture chip (Biacore) prior to the injection of 100 nM purified recombinant Sf9-cell derived P-Rex1.

[2] = test system: PAE cells; assay: Immunofluorescence microscopy of lamellipodia formation in myc-P-Rex1 transfected PAE cells; type: cell-based, pig
Procedure: Pig aortic endothelial (PAE) cells were transiently transfected with pCMV3-myc-P-Rex1 or pCMV3-myc-DAPP1 by electroporation, grown on coverslips for 10 h and then serum starved for 8 h. They were then treated or not with 100 nM wortmannin for 10 min followed by stimulation with varying doses of PDGF for 5 min. Cells were fixed and prepared for immunofluorescence microscopy by staining of P-Rex1 and DAPP1 with anti-myc epitope-tag primary and FITC-goat anti-mouse secondary antibodies and filamentuous actin with TRITC-phalloidin as previously described (Welch et al. 1998).

[3] = Inositol polyphosphate 4-phosphatase (lipid phosphatase) assay; type: biochemical; settings: P-Rex1 up to 1.45 μM
[4] = Protein phosphatase assay with para-nitrophenolphosphate; type: biochemical; settings: P-Rex1 up to 192 nM
Excerpt: We also used para-nitrophenolphosphate as a broad-spectrum substrate in a protein phosphatase assay, using calf intestinal alkaline phosphatase and MEG-2 tyrosine phosphatase as controls.

[5] = molecular target: T1, recombinant human P-Rex1 (Homo sapiens, UniProt Q8TCU6, A1118T/K1340E); assay: Rac-GEF assay for recombinant P-Rex1 ([35S]-GTPγS loading of EE-Rac1, liposomes); type: biochemical
T1 construct: made in house; host or cells: Sf9 cells (baculovirus, pAc0G1 vector)
T1 sequence (Q8TCU6 whole entry A1118T/K1340E): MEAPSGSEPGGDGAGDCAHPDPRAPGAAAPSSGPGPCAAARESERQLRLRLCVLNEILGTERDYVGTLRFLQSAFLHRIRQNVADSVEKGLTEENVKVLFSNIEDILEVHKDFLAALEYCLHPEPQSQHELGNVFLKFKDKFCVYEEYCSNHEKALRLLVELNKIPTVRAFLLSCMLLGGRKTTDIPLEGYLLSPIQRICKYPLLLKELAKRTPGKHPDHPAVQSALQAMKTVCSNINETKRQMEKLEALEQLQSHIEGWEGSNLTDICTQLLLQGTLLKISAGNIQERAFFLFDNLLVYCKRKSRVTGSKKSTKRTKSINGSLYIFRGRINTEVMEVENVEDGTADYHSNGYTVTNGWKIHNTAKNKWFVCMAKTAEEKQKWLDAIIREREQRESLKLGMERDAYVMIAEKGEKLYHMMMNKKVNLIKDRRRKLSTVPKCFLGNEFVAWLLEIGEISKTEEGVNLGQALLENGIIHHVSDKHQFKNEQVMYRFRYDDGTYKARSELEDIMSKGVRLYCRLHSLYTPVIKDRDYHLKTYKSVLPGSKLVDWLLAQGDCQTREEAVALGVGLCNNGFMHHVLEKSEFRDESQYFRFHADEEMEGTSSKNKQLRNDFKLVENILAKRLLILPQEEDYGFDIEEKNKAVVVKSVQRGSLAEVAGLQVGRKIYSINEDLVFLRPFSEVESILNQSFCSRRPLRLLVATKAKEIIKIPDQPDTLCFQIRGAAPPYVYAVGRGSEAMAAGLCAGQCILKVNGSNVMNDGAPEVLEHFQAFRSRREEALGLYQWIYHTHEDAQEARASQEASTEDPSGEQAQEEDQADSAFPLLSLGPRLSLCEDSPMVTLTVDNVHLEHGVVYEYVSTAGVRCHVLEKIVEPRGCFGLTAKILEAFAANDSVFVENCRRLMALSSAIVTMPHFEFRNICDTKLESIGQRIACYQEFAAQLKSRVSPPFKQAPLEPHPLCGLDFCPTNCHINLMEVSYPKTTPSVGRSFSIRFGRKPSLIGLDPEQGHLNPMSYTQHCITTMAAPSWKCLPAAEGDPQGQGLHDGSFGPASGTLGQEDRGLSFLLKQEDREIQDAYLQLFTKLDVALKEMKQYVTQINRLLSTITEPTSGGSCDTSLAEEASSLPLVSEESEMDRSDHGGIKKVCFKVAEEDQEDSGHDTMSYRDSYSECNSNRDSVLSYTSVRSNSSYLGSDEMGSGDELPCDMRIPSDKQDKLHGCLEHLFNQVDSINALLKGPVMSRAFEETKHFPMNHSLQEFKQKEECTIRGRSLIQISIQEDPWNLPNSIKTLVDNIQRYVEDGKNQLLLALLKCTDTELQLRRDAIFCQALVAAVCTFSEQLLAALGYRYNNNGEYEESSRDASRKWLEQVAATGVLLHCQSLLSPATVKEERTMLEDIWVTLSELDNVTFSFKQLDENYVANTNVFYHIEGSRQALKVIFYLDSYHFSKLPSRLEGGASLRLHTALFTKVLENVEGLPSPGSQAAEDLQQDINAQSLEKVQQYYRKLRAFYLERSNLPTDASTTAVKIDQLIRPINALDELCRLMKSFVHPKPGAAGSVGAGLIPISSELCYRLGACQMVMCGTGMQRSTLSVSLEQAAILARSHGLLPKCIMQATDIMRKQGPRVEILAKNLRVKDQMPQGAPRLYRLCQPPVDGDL
Procedure: Liposomes (phosphatidylcholine (PtdCho), phosphatidylserine (PtdS), phosphatidylinositol (PtdIns), final assay concentration 200 μM each) were sonicated in lipid buffer (20 mM Hepes/NaOH pH 7.5 (4° C.), 100 mM NaCl, 1 mM EGTA) with or without PtdIns(3,4,5)P3 (final assay concentration 10 μM) and incubated for 10 min on ice with 2 μl of purified, GDP-loaded, recombinant, lipid-modified EE-Rac1 in 5 mM MgCl2, 50 mg/ml BSA, 5 mM DTT, 20 mM Hepes/NaOH pH 7.5 (4° C.), 100 mM NaCl, 1 mM EGTA (final assay concentration 100 nM EE-Rac1, 0.0024% cholate). Then 4 μl of Rac-GEF activity (cytosol, column fractions, or recombinant P-Rex1) was added, followed by 2 μl of GTPγS (in lipid buffer, final assay concentration 5 μM, including 1 μCi [^35S]-GTPγS). After 10 min at 30° C., the reaction was stopped and EE-Rac1 pulled down using anti-EE antibodies coupled to protein G-sepharose, and [^35S]-GTPγS-loading of Rac was detected by scintillation β-counting. Recombinant P-Rex1 was diluted in ‘buffer A’ (20 mM Hepes/NaOH pH 7.5 (4° C.), 1% betaine, 0.01% Na azide, 0.5 mM EGTA, 200 mM KCl, 10% ethylene glycol) to a final assay concentration of 50 nM. In assays with Gβγ, 2 μl of Gβγ in ‘buffer A’ were added to the liposome/Rac mix before the 10 min on ice, and P-Rex1 was added as 5×.

[6] = test system: neutrophil cytosol and low-density membranes (ROS formation); assay: ROS formation assay with neutrophil cytosol and membrane fractions; type: biochemical, pig; settings: added as liposomes, biological diastereoisomer; FIG. 1B
Procedure: Neutrophil-enriched leukocytes were isolated from pigs' blood, sonicated in 0.25 M sucrose, 0.1 M KCl, 50 mM Hepes/NaOH pH 7.2 (4° C.), 1 mM DTT, 2 mM EGTA, 0.1 mM PMSF and 1× antiproteases (20 μg/ml of each antipain, aprotinin, pepstatin and leupetin) and centrifuged (100,000×g, 1 h, 4° C.) to yield cytosol and light membrane fractions (4.5 mg/ml protein, collected between 0.60 and 1.35 M sucrose and washed in sonication buffer). Light membranes (3 μl) were pre-mixed with Gβγ subunits, p101/p110γ-PI3K and/or N17-Rac (or boiled controls) in 6 μl containing 5 mM ATP, 8 mM MgCl2, 20 mM Hepes/NaOH pH 7.5 (4° C.), 2 mM EGTA, 10 mM β-glycerophosphate, 0.1 mM ortho-vanadate, 0.1 M KCl, 1 mM DTT, 0.01% (w/v) Na azide. After 25 min on ice, 20 μl was added containing 15 μl cytosol and 1 mM MgGTP, 20 μM FAD, 400 μM NADPH and 200 μM luminol. After 8 min at RT, single photon counts (SPC) per 0.1 min were quantitated in a scintillation counter at intervals of 3-5 min for up to 20 min (blanks without cytosol were subtracted). When lipids were added, they were preincubated with the membranes, and 10 μM GTPγS replaced MgGTP. Where wortmannin was added, it was preincubated with both cytosol and membrane fractions for 15 min on ice. Where EE-Rac1 was added, it was preloaded with different guanine nucleotides at a 5-fold excess over bound GDP.

[7] = test system: EE-Rac1; assay: Rac-GEF assay with neutrophil cytosol and membrane fractions; type: biochemical; settings: PtdIns(3,4,5)P3 alone (30 μM); FIG. 1C
Procedure: This assay was essentially as for ROS production, except pure, lipid-modified EE-Rac1 (30-50 nM final concentration) was added to the cytosol, and GTP, GTPγS, NADPH, FAD and luminol omitted. Three min after mixing membrane and cytosol fractions, [α^32P]-GTP (20 μCi per sample) was added. Four min later, the reaction was stopped and EE-Rac1 pulled down using anti-EE antibody coupled to protein G sepharose. The total dpm on EE-Rac1 were quantified by scintillation counting (blanks without EE-Rac1 were subtracted).

Chain of P-Rex1 (Q8TCU6 whole entry A1118T/K1340E): as above

Compound: PtdIns3P
P-Rex1 binding to phospholipid vesicles containing the phosphoinositide [1]: only weakly

Compound: PtdIns5P
P-Rex1 binding to phospholipid vesicles containing the phosphoinositide [1]: only weakly

Compound: PtdIns(3,5)P2
P-Rex1 binding to phospholipid vesicles containing the phosphoinositide [1]: only weakly

Compound: P-Rex1: novel 185 kD PtdIns(3,4,5)P3- and Gβγ-regulated guanine-nucleotide exchange factor for Rac (SEQ ID NO:1)
myc-positive cells with strongly exaggerated lamellipodia ('fried eggs', V12-Rac-like phenotype) ([2]; serum-starved, unstimulated cells transiently expressing myc-P-Rex1): around 30%
lipid phosphatase activity [3]: no lipid or protein phosphatase activity
protein phosphatase activity [4]: no lipid or protein phosphatase activity

Compound: phosphatidylinositol(3,4,5)P3 [PtdIns(3,4,5)P3]
P-Rex1 binding to phospholipid vesicles containing the phosphoinositide [1]: substantially augmented
EC50 ([5]; liposomes with PtdIns(3,4,5)P3 dose response, EE-Rac1, FIG. 5A, read-out: 50% maximal effect on Rac-GEF activity of P-Rex1): 300 nM
activation of ROS formation [6]: potently activate
activation of Rac1 [7]: stimulated activation

Compound: PDGF
P-Rex1-positive cells exhibiting the V12-Rac-like phenotype ([2]; PDGF-stimulation for 5 min): 80%

Compound: PtdIns(4,5)P2
P-Rex1 binding to phospholipid vesicles containing the phosphoinositide [1]: only weakly

More lines, now with the values ahead:

P-Rex1 binding to phospholipid vesicles containing the phosphoinositide [1]: only weakly
Compound: PtdIns4P

activation of P-Rex1 Rac-GEF activity by phosphoinositide ([5]; phosphoinositides compared at 10 μM, FIG. 5B): weak activation
Compound: PtdIns(3,4)P2

effect on P-Rex1 Rac-GEF activity in vitro ([5]; FIG. 5D, 5E): strongly inhibits
Compound: C[C@H](CCC(=O)O)[C@H]1CC[C@H]2[C@@H]3[C@H](O)C[C@@H]4C[C@H](O)CC[C@]4(C)[C@H]3C[C@H](O)[C@]12C [cholate]
